Assay results as given in BindingDB's records for doi:10.1111/cbdd.12596 (Nanjing University, 2015).

How the values were obtained:
Experiment in all cases: VEGFR2 Kinase Assay
Settings in all cases: pH 7.2; 25 °C
[1] = molecular target: Vascular endothelial growth factor receptor 2 (Homo sapiens, UniProt P35968)
Experimental: VEGFR kinase assays were set up to assess the level of autophosphorylation based on DELFIA/Time-Resolved Fluorometry. 96-well plates were coated at room temperature for 1-2 h with 100 μL per well of 25 μg mL−1 poly-(Glu4-Tyr) peptide (Sigma) in Tris-buffered saline (TBS) (25 mM Tris, pH 7.2, 150 mM NaCl). Unbound peptide was washed three times with PBS. The cytoplasmic domain of VEGFR-2 enzyme was diluted (depending on the specific activity of the batch, from 10- to 20-fold) in 0.1% BSA/4 mM HEPES. […] Controls were done by adding DMSO alone, i.e., no test compound, to wells containing the master mix of enzyme plus kinase buffer. After 15 min at room temperature, ATP/MgCl2 (20 μL of

[2] = molecular target: Epidermal growth factor receptor (Homo sapiens, UniProt P00533)
Chain of Epidermal growth factor receptor (P00533 whole entry): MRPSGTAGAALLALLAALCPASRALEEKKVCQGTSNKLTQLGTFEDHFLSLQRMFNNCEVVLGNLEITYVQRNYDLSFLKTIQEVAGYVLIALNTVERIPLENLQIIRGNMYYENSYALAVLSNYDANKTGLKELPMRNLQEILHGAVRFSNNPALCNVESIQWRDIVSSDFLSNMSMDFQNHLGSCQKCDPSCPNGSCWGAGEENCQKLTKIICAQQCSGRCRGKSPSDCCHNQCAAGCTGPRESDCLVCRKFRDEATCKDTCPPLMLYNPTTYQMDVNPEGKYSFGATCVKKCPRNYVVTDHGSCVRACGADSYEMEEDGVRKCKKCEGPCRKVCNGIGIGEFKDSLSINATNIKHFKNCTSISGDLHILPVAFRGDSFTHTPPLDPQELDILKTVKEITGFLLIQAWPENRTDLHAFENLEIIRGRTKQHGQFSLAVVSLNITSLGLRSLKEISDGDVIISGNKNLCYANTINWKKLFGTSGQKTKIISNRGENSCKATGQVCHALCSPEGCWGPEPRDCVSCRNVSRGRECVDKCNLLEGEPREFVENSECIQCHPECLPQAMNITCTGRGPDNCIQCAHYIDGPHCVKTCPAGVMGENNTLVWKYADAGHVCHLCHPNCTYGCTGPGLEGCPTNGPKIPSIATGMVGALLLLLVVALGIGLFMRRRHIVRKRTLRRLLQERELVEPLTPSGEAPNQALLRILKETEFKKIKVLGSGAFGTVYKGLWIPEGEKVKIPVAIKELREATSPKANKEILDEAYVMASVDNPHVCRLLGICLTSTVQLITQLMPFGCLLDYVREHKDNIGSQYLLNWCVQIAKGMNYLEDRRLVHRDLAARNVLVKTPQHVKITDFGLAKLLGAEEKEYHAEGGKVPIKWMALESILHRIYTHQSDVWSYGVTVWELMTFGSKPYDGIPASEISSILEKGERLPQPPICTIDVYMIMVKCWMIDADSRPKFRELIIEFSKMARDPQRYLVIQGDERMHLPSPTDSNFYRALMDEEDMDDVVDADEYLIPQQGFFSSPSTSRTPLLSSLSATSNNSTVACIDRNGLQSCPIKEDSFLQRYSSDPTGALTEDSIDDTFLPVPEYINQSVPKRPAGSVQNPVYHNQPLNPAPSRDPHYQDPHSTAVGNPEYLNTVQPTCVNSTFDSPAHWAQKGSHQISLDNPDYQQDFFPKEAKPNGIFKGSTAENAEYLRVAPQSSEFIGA

[3] = molecular target: Fibroblast growth factor 2 (Homo sapiens, UniProt P09038)

Chain of Vascular endothelial growth factor receptor 2 (P35968 whole entry, the tested form may be a part): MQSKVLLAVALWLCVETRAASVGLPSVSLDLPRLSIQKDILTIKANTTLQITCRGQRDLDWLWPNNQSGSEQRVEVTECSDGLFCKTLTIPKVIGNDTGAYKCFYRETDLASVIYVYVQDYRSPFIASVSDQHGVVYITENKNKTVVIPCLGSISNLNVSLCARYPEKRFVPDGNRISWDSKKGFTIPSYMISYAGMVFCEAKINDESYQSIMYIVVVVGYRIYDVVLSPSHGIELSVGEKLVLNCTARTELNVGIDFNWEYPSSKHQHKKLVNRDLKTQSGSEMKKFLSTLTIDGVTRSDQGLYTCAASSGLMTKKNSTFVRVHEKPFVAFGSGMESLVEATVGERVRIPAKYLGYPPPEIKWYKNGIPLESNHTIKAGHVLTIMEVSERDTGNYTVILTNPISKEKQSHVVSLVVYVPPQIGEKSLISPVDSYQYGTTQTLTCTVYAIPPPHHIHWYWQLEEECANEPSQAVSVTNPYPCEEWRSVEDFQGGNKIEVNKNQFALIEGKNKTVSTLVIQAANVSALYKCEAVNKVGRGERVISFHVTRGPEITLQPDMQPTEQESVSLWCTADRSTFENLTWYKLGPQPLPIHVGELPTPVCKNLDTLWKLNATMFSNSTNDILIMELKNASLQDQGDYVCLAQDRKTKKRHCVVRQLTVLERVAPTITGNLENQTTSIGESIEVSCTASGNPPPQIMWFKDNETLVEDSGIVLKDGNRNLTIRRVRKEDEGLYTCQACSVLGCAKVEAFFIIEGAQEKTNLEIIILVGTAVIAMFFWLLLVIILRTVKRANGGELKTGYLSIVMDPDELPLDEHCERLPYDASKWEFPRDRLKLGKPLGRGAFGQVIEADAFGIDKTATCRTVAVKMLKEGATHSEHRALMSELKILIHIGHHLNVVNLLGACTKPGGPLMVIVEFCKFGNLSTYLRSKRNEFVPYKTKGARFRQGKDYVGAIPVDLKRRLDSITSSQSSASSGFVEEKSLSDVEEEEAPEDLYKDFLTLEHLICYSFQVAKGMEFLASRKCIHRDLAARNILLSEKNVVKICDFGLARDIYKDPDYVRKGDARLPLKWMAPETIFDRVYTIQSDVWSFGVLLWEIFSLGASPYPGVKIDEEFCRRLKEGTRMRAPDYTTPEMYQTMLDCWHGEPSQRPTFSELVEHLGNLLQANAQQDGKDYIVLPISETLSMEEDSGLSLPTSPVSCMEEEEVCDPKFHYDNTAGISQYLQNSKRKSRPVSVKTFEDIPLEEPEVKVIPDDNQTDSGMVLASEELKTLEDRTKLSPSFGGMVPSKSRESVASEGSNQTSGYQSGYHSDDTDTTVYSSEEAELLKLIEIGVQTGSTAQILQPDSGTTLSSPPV

IC50 [1] | IC50 [2] | IC50 [3] | Compound
84.3 nM | 483 nM | 609 nM | OC(COc1ncnc2ccccc12)Cn1ccnc1 (configuration not stated) [1-(1H-Imidazol-1-yl)-3-(quinazolin-4-yloxy)propan-2-ol (3t)]
55.7 nM | 444 nM | 586 nM | Cc1nccn1CC(O)COc1ncnc2ccccc12 (configuration not stated) [1-(2-Methyl-1H-imidazol-1-yl)-3-(quinazolin-4-yloxy)propan-2-ol (3u)]
47.7 nM | 409 nM | 398 nM | OC(COc1ncnc2ccccc12)CN1CCN(c2cccc(Cl)c2Cl)CC1 (configuration not stated) [1-(4-(2,3-Dichlorophenyl)piperazin-1-yl)-3-(quinazolin-4-yloxy)propan-2-ol (3k)]
12.4 nM | 395 nM | 222 nM | Cc1ccc(N2CCN(CC(O)COc3ncnc4ccccc34)CC2)c(C)c1 (configuration not stated) [1-(4-(2,4-Dimethylphenyl)piperazin-1-yl)-3-(quinazolin-4-yloxy)propan-2-ol (3m)]
49.8 nM | 418 nM | 506 nM | OC(COc1ncnc2ccccc12)CN1CCN(c2ccccc2Cl)CC1 (configuration not stated) [1-(4-(2-Chlorophenyl)piperazin-1-yl)-3-(quinazolin-4-yloxy)propan-2-ol (3b)]
34.7 nM | 409 nM | 372 nM | OC(COc1ncnc2ccccc12)CN1CCN(c2ccccc2F)CC1 (configuration not stated) [1-(4-(2-Fluorophenyl)piperazin-1-yl)-3-(quinazolin-4-yloxy)propan-2-ol (3d)]
9.98 nM | 357 nM | 209 nM | COc1ccccc1N1CCN(CC(O)COc2ncnc3ccccc23)CC1 (configuration not stated) [1-(4-(2-Methoxyphenyl)piperazin-1-yl)-3-(quinazolin-4-yloxy)propan-2-ol (3g)]
8.42 nM | 344 nM | 178 nM | OC(COc1ncnc2ccccc12)CN1CCN(c2ccc(Cl)c(Cl)c2)CC1 (configuration not stated) [1-(4-(3,4-Dichlorophenyl)piperazin-1-yl)-3-(quinazolin-4-yloxy)propan-2-ol (3l)]
4.98 nM | 307 nM | 145 nM | OC(COc1ncnc2ccccc12)CN1CCN(c2cccc(C(F)(F)F)c2)CC1 (configuration not stated) [1-(4-(3-(Trifluoromethyl)phenyl)piperazin-1-yl)-3-(quinazolin-4-yloxy)propan-2-ol (3j)]
47.4 nM | 413 nM | 402 nM | OC(COc1ncnc2ccccc12)CN1CCN(c2cccc(Cl)c2)CC1 (configuration not stated) [1-(4-(3-Chlorophenyl)piperazin-1-yl)-3-(quinazolin-4-yloxy)propan-2-ol (3c)]
2.89 nM | 208 nM | 103 nM | COc1cccc(N2CCN(CC(O)COc3ncnc4ccccc34)CC2)c1 (configuration not stated) [1-(4-(3-Methoxyphenyl)piperazin-1-yl)-3-(quinazolin-4-yloxy)propan-2-ol (3h)]
21.8 nM | 403 nM | 300 nM | OC(COc1ncnc2ccccc12)CN1CCN(c2ccc(F)cc2)CC1 (configuration not stated) [1-(4-(4-Fluorophenyl)piperazin-1-yl)-3-(quinazolin-4-yloxy)propan-2-ol (3e)]
3.42 nM | 276 nM | 122 nM | COc1ccc(N2CCN(CC(O)COc3ncnc4ccccc34)CC2)cc1 (configuration not stated) [1-(4-(4-Methoxyphenyl)piperazin-1-yl)-3-(quinazolin-4-yloxy)propan-2-ol (3i)]
16.5 nM | 382 nM | 248 nM | O=[N+]([O-])c1ccc(N2CCN(CC(O)COc3ncnc4ccccc34)CC2)cc1 (configuration not stated) [1-(4-(4-Nitrophenyl)piperazin-1-yl)-3-(quinazolin-4-yloxy)propan-2-ol (3f)]
52.2 nM | 435 nM | 444 nM | OC(COc1ncnc2ccccc12)CN1CCN(Cc2ccccc2)CC1 (configuration not stated) [1-(4-Benzylpiperazin-1-yl)-3-(quinazolin-4-yloxy)propan-2-ol (3n)]
54.4 nM | 462 nM | 519 nM | CCN1CCN(CC(O)COc2ncnc3ccccc23)CC1 (configuration not stated) [1-(4-Ethylpiperazin-1-yl)-3-(quinazolin-4-yloxy)propan-2-ol (3p)]
74.2 nM | 452 nM | 592 nM | Cc1cn(CC(O)COc2ncnc3ccccc23)cn1 (configuration not stated) [1-(4-Methyl-1H-imidazol-1-yl)-3-(quinazolin-4-yloxy)propan-2-ol (3v)]
59.3 nM | 474 nM | 419 nM | CN1CCN(CC(O)COc2ncnc3ccccc23)CC1 (configuration not stated) [1-(4-Methylpiperazin-1-yl)-3-(quinazolin-4-yloxy)propan-2-ol (3o)]
32.6 nM | 400 nM | 293 nM | OC(COc1ncnc2ccccc12)CN1CCN(c2ccccc2)CC1 (configuration not stated) [1-(4-Phenylpiperazin-1-yl)-3-(quinazolin-4-yloxy)propan-2-ol (3a)]
63 nM | 455 nM | 582 nM | CN(C)CC(O)COc1ncnc2ccccc12 (configuration not stated) [1-(Dimethylamino)-3-(quinazolin-4-yloxy)propan-2-ol (3q)]
78.5 nM | 474 nM | 593 nM | OC(COc1ncnc2ccccc12)CN1CCCCC1 (configuration not stated) [1-(Piperidin-1-yl)-3-(quinazolin-4-yloxy)propan-2-ol (3s)]
81.7 nM | 483 nM | 602 nM | OC(COc1ncnc2ccccc12)CN1CCOCC1 (configuration not stated) [1-Morpholino-3-(quinazolin-4-yloxy)propan-2-ol (3r)]
– | – | 114 nM | COc1cc2nccc(Oc3ccc(NC(=O)Nc4cc(C)on4)c(Cl)c3)c2cc1OC [Tivozanib]
